# Data published in patent US20240150362A1, “Substituted Pyrrolotriazines” (Molecure S.A., priority 2022, published 2024).
# Where a name gives a salt, the structure may show the parent alone.
# Target: T1, full-length USP7 (Homo sapiens, UniProt Q93009)
# T1 construct: A 45 μl reaction volume containing full-length USP7 (0.5-1.0 nM)
# Assay: Enzymatic assay to determine % inhibition of USP7 activity at 1 μM test compound (Ubiquitin-Rhodamine 110 cleavage)
# Type: biochemical
# Conditions: 1 μM of the test compound; given where IC50 has not been determined yet; mean of two repetitions
# Description: Enzymatic Assay to Determine % Value of Inhibition […] Activity at 1 μM […]
# A 45 μl reaction volume containing full-length USP7 (0.5-1.0 nM) in 50 mM HEPES pH 7.5, 150 mM NaCl, 2 mM DTT, 1 mg/ml BSA and 0.05% Tween20 (DUB assay buffer) was assembled in wells of 96 well half area black flat bottom plates. All test compounds were first dissolved to 30 mM stocks in DMSO and subsequently introduced to enzyme 15 min after USP7 incubation with DTT at room temperature. The final concentration of tested compounds was 1 μM. The enzymatic reaction was started by adding 0.5 μM Ubiquitin-Rhodamine 110 (final concentration) and allowed to proceed for 30-60 min at 25° C., 250 RPM shaking before Rhodamine fluorescence (485 nm excitation/535 nm emission) was measured using Tecan Spark M10 plate reader. Percentage of inhibition at 1 μM was determined by the mean of two repetitions for these concentrations using Microsoft Excel software.
# T1 sequence (Q93009 whole entry): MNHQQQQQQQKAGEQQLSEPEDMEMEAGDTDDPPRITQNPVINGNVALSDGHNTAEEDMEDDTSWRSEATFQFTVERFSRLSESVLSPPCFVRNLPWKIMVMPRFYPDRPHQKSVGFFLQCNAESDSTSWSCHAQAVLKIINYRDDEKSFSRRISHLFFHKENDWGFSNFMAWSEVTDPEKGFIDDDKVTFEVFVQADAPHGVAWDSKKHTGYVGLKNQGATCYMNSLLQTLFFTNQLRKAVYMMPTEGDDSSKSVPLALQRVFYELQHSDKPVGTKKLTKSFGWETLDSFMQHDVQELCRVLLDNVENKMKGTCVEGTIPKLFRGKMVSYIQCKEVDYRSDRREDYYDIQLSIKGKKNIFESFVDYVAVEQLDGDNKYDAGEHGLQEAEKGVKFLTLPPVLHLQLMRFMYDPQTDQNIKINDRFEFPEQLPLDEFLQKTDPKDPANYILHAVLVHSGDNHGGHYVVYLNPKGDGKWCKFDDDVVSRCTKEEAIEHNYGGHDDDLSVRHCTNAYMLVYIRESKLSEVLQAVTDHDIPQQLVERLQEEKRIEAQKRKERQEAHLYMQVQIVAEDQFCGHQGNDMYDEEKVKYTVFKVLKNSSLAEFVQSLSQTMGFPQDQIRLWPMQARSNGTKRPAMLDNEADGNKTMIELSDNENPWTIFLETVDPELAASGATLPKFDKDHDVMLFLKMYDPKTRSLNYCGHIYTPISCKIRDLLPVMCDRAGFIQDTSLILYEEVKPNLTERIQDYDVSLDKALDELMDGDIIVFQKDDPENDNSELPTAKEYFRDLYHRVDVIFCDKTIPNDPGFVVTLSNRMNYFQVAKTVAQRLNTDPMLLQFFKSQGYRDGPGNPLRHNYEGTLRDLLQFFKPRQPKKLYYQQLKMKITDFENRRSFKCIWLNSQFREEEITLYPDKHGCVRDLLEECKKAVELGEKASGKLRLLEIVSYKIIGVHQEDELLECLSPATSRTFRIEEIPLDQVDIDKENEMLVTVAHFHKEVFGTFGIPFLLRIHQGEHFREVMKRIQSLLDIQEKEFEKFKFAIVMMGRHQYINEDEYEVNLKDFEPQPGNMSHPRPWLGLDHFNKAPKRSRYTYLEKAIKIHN
row,Compound,inhibition at 1 µM
1,"C[C@H]1CNCC(Cc2c(F)cc(Cl)cc2-c2ncnn3cc(CN4C(=O)CN(C)CC4=O)cc23)O1 (single isomer, unassigned) [Example 119, hydrochloride]",20 to 49%
2,"Cc1cc(Cl)cc(-c2ncnn3cc(CN4C(=O)C5C(C4=O)C5(C)C)cc23)c1O[C@@H]1CN[C@H](C(=O)O)C1 (stereo partly drawn) [Example 7, (2S,4S)-4-(4-chloro-2-(6-((6,6-dimethyl-2,4-dioxo-3-azabicyclo[3.1.0]hexan-3-yl)methyl)pyrrolo[2,1-f][1,2,4]triazin-4-yl)-6-methylphenoxy)pyrrolidine-2-carboxylic acid hydrochloride]",< 20%
3,"Cc1cc(Cl)cc(-c2ncnn3cc(Cn4c(=O)cc[nH]c4=O)cc23)c1CC1CNC[C@H](C)O1 (single isomer, unassigned) [Example 121, dihydrochloride]",50 to 70%
4,"Cc1cc(Cl)cc(-c2ncnn3cc(CN4C(=O)C5C(C4=O)C5(C)C)cc23)c1NC[C@@H]1CNCCO1 (stereo partly drawn) [Example 81, 3-((4-(5-chloro-3-methyl-2-((((S)-morpholin-2-yl)methyl)amino)phenyl)pyrrolo[2,1-f][1,2,4]triazin-6-yl)methyl)-6,6-dimethyl-3-azabicyclo[3.1.0]hexane-2,4-dione dihydrochloride]",20 to 49%
5,"Cc1cc(Cl)cc(-c2ncnn3cc(CO)cc23)c1O[C@H]1CCCNC1 [Example 17, (S)-(4-(5-chloro-3-methyl-2-(piperidin-3-yloxy)phenyl)pyrrolo[2,1-f][1,2,4]triazin-6-yl)methanol hydrochloride]",< 20%
6,"CN1CCOC(Cc2c(F)cc(Cl)cc2-c2ncnn3cc(Cn4c(=O)ccn(C)c4=O)cc23)C1 (racemic) [Example 103, 3-((4-(5-chloro-3-fluoro-2-((4-methylmorpholin-2-yl)methyl)phenyl)pyrrolo[2,1-f][1,2,4]triazin-6-yl)methyl)-1-methylpyrimidine-2,4(1H,3H)-dione hydrochloride]",20 to 49%
7,"Cc1cc(Cl)cc(-c2ncnn3cc(CN4C(=O)C5C(C4=O)C5(C)C)c(C)c23)c1O[C@H]1CCCNC1 (stereo partly drawn) [Example 12, 3-((4-(5-chloro-3-methyl-2-(((S)-piperidin-3-yl)oxy)phenyl)-5-methylpyrrolo[2,1-f][1,2,4]triazin-6-yl)methyl)-6,6-dimethyl-3-azabicyclo[3.1.0]hexane-2,4-dione hydrochloride]",50 to 70%
8,"Cc1cc(Cl)cc(-c2ncnn3cc(CN4C(=O)C5C(C4=O)C5(C)C)cc23)c1CC1CNCC(F)(F)CO1 (stereo not drawn) [Example 38, 3-((4-(5-chloro-2-((6,6-difluoro-1,4-oxazepan-2-yl)methyl)-3-methylphenyl)pyrrolo[2,1-f][1,2,4]triazin-6-yl)methyl)-6,6-dimethyl-3-azabicyclo[3.1.0]hexane-2,4-dione hydrochloride]",< 20%
9,"CCOC(=O)c1cc2c(-c3cc(Cl)cc(C)c3O[C@H]3CCCNC3)ncnn2c1 [Example 15, ethyl (S)-4-(5-chloro-3-methyl-2-(piperidin-3-yloxy)phenyl)pyrrolo[2,1-f][1,2,4]triazine-6-carboxylate hydrochloride]",20 to 49%
10,"CC1(C)C2C(=O)N(Cc3cc4c(-c5cc(Cl)ccc5N5CC[C@H](N)C5)ncnn4c3)C(=O)C21 (stereo partly drawn) [Example 86, 3-((4-(2-((S)-3-aminopyrrolidin-1-yl)-5-chlorophenyl)pyrrolo[2,1-f][1,2,4]triazin-6-yl)methyl)-6,6-dimethyl-3-azabicyclo[3.1.0]hexane-2,4-dione hydrochloride]",20 to 49%
11,"Cc1cc(Cl)cc(-c2ncnn3cc(CN4C(=O)C5C(C4=O)C5(C)C)cc23)c1CC1CNCC(CF)O1 (stereo not drawn) [Example 42, 3-((4-(5-chloro-2-((6-(fluoromethyl)morpholin-2-yl)methyl)-3-methylphenyl)pyrrolo[2,1-f][1,2,4]triazin-6-yl)methyl)-6,6-dimethyl-3-azabicyclo[3.1.0]hexane-2,4-dione hydrochloride]",50 to 70%
12,"CN[C@H]1CCCN(c2ccc(Cl)cc2-c2ncnn3cc(CN4C(=O)C5C(C4=O)C5(C)C)cc23)C1 (stereo partly drawn) [Example 112, 3-((4-(5-chloro-2-((S)-3-(methylamino)piperidin-1-yl)phenyl)pyrrolo[2,1-f][1,2,4]triazin-6-yl)methyl)-6,6-dimethyl-3-azabicyclo[3.1.0]hexane-2,4-dione hydrochloride]",50 to 70%
13,"O=c1ccn(CC(F)(F)F)c(=O)n1Cc1cc2c(-c3cc(Cl)cc4c3N(C3CCNC3)CCC4)ncnn2c1 (stereo not drawn) [Example 64, 3-((4-(6-chloro-1-(pyrrolidin-3-yl)-1,2,3,4-tetrahydroquinolin-8-yl)pyrrolo[2,1-f][1,2,4]triazin-6-yl)methyl)-1-(2,2,2-trifluoroethyl)pyrimidine-2,4(1H,3H)-dione hydrochloride]",> 70%
14,"Cc1cc(Cl)cc(-c2ncnn3cc(CN4C(=O)C5C(C4=O)C5(C)C)cc23)c1C1=CCNCC1 (stereo not drawn) [Example 84, 3-((4-(5-chloro-3-methyl-2-(1,2,3,6-tetrahydropyridin-4-yl)phenyl)pyrrolo[2,1-f][1,2,4]triazin-6-yl)methyl)-6,6-dimethyl-3-azabicyclo[3.1.0]hexane-2,4-dione hydrochloride]",< 20%
15,"Cc1cc(Cl)cc(-c2ncnn3cc(Cn4cc(F)c(=O)n(C)c4=O)cc23)c1C[C@@H]1CNCCO1 (single isomer, unassigned) [Example 98, hydrochloride]",< 20%

# The remaining lines, values ahead:
row,inhibition at 1 µM,Compound
1,50 to 70%,"CC1(C)C2C(=O)N(Cc3cc4c(-c5cc(C(F)(F)F)cc6ccn(CC7(O)CCNCC7)c56)ncnn4c3)C(=O)C21 (stereo not drawn) [Example 19, 3-((4-(1-((4-hydroxypiperidin-4-yl)methyl)-5-(trifluoromethyl)-1H-indol-7-yl)pyrrolo[2,1-f][1,2,4]triazin-6-yl)methyl)-6,6-dimethyl-3-azabicyclo[3.1.0]hexane-2,4-dione hydrochloride]"
2,< 20%,"Cc1cc(Cl)cc(-c2ncnn3cc(CN4C(=O)C5C(C4=O)C5(C)C)cc23)c1O[C@@H]1CNCC(F)(F)C1 (stereo partly drawn) [Example 28, 3-((4-(5-chloro-2-(((S)-5,5-difluoropiperidin-3-yl)oxy)-3-methylphenyl)pyrrolo[2,1-f][1,2,4]triazin-6-yl)methyl)-6,6-dimethyl-3-azabicyclo[3.1.0]hexane-2,4-dione 2,2,2-trifluoroacetate]"
3,< 20%,"CC1(C)C2C(=O)N(Cc3cc4c(-c5cc(Cl)ccc5N5CCNCC5)ncnn4c3)C(=O)C21 (stereo not drawn) [Example 85, 3-((4-(5-chloro-2-(piperazin-1-yl)phenyl)pyrrolo[2,1-f][1,2,4]triazin-6-yl)methyl)-6,6-dimethyl-3-azabicyclo[3.1.0]hexane-2,4-dione hydrochloride]"
4,> 70%,"CC1(C)C2C(=O)N(Cc3cc4c(-c5cc(Cl)cc6c5N(C5CCNCC5)CCC6)ncnn4c3)C(=O)C21 (stereo not drawn) [Example 54, 3-((4-(6-chloro-1-(piperidin-4-yl)-1,2,3,4-tetrahydroquinolin-8-yl)pyrrolo[2,1-f][1,2,4]triazin-6-yl)methyl)-6,6-dimethyl-3-azabicyclo[3.1.0]hexane-2,4-dione hydrochloride]"
5,20 to 49%,"Cc1cc(Cl)cc(-c2ncnn3cc(CN4C(=O)C5C(C4=O)C5(C)C)cc23)c1CN1CCC2(CC1)CNC2 (stereo not drawn) [Example 102, 3-((4-(2-((2,7-diazaspiro[3.5]nonan-7-yl)methyl)-5-chloro-3-methylphenyl)pyrrolo[2,1-f][1,2,4]triazin-6-yl)methyl)-6,6-dimethyl-3-azabicyclo[3.1.0]hexane-2,4-dione hydrochloride]"
6,< 20%,"CC1(C)C2C(=O)N(Cc3cc4c(-c5cc(Cl)ccc5N5CC6CNCC6C5)ncnn4c3)C(=O)C21 (stereo not drawn) [Example 97, 3-((4-(5-chloro-2-(hexahydropyrrolo[3,4-c]pyrrol-2(1H)-yl)phenyl)pyrrolo[2,1-f][1,2,4]triazin-6-yl)methyl)-6,6-dimethyl-3-azabicyclo[3.1.0]hexane-2,4-dione hydrochloride]"
7,20 to 49%,"Cc1cc(Cl)cc(-c2ncnn3cc(CN4C(=O)C5C(C4=O)C5(C)C)cc23)c1OC[C@@H]1CCCNC1 (stereo partly drawn) [Example 53, 3-((4-(5-chloro-3-methyl-2-(((R)-piperidin-3-yl)methoxy)phenyl)pyrrolo[2,1-f][1,2,4]triazin-6-yl)methyl)-6,6-dimethyl-3-azabicyclo[3.1.0]hexane-2,4-dione hydrochloride]"
8,20 to 49%,"Cc1cc(Cl)cc(-c2ncnn3cc(CN4C(=O)C5C(C4=O)C5(C)C)cc23)c1C(=O)N1CC(F)(F)C1 (stereo not drawn) [Example 8, 3-((4-(5-chloro-2-(3,3-difluoroazetidine-1-carbonyl)-3-methylphenyl)pyrrolo[2,1-f][1,2,4]triazin-6-yl)methyl)-6,6-dimethyl-3-azabicyclo[3.1.0]hexane-2,4-dione hydrochloride]"

# Same assay, conditions: 1 μM of the test compound; given where IC50 has not been determined yet; mean of two repetitions; hydrochloride, 1 µM
row,USP7 % inhibition,Compound
1,C* (C*: 20-49% inhibition),"Cc1cc(Cl)cc(-c2ncnn3cc(CN4C(=O)C5C(C4=O)C5(C)C)cc23)c1OC(C)C1CCNCC1.Cl (single isomer, unassigned) [Example 57, 3-((4-(5-chloro-3-methyl-2-(1-(piperidin-4-yl)ethoxy)phenyl)pyrrolo[2,1-f][1,2,4]triazin-6-yl)methyl)-6,6-dimethyl-3-azabicyclo[3.1.0]hexane-2,4-dione hydrochloride]"
